Measured values from ChEMBL document CHEMBL1201862, “PubChem BioAssay data set” (2004).
Active and inactive are the calls of the source.

How the values were obtained:
Kallikrein-7 = Kallikrein-7 (Homo sapiens, UniProt P49862); assay: Fluorescence Intensity-based biochemical primary high throughput dose response assay to identify activators of kallikrein-7 (K7) zymogen.
[1] = molecular target: T1, Oxysterols receptor LXR-beta (Homo sapiens, UniProt P55055); type: functional, cell-based;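 also: Cell-based luminescence dose-response assay of agonist activity at LXR, run as a confirmatory counterscreen to a daf-12 agonist screen; HEK293 cells with Gal4-LXR fusion and GAL4-driven luciferase reporter; agonist potency from rising luciferase signal of a Gal4-LXR reporter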
T1 sequence (P55055 whole entry): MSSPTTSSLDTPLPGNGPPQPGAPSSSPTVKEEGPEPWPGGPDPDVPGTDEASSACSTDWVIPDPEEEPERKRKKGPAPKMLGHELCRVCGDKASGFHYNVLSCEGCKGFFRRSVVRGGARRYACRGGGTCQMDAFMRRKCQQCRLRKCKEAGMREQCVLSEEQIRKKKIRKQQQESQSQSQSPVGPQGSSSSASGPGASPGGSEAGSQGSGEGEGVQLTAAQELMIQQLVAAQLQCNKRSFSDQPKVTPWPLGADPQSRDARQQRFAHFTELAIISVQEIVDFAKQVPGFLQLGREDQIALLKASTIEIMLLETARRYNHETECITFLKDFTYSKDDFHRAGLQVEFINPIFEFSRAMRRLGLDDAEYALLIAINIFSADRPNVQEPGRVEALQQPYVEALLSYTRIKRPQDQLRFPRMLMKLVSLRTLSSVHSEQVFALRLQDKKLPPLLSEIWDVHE

[2] = molecular target: T2, RNA-binding protein pos-1 (Caenorhabditis elegans, UniProt G5EF15); assay: inhibitors of POS-1/mex-3 RNA binding, dose response, biochemical, fluorescence polarization (AID 1964);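 also: purified POS-1 fused to maltose binding protein made in E. coli; potency of compounds blocking POS-1 binding to fluorescent RNA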
T2 sequence (G5EF15 whole entry): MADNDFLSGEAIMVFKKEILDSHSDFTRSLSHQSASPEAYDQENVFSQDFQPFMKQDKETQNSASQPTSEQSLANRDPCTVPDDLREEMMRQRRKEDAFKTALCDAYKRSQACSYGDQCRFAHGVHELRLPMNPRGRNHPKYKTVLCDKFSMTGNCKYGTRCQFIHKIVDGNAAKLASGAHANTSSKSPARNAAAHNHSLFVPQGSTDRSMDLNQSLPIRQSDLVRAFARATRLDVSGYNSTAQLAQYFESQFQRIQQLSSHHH

Bcl-2-like protein 10 = molecular target: T3, Bcl-2-like protein 10 (Homo sapiens, UniProt Q9HD36); assay: displacers of TR3 peptide from Bcl-B, primary screen, selectivity assay for Bfl-1 inhibitor project, biochemical, fluorescence polarization, FITC-TR3 peptide (AID 748);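 also: fluorescence polarization from a fluorescein-labelled TR3 peptide binding purified Bcl-B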
T3 sequence (Q9HD36 whole entry): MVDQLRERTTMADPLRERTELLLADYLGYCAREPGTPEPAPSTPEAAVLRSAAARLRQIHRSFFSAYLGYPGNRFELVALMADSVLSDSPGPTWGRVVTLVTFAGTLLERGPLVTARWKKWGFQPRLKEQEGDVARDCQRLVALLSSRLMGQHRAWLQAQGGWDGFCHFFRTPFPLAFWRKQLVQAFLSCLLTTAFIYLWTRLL

[3] = molecular target: T4, Zinc finger protein mex-5 (Caenorhabditis elegans, UniProt Q9XUB2); assay: MEX-5/TCR-2 RNA interaction inhibitors, dose response, biochemical, C. elegans, fluorescence polarization (AID 1960)
T4 sequence (Q9XUB2 whole entry): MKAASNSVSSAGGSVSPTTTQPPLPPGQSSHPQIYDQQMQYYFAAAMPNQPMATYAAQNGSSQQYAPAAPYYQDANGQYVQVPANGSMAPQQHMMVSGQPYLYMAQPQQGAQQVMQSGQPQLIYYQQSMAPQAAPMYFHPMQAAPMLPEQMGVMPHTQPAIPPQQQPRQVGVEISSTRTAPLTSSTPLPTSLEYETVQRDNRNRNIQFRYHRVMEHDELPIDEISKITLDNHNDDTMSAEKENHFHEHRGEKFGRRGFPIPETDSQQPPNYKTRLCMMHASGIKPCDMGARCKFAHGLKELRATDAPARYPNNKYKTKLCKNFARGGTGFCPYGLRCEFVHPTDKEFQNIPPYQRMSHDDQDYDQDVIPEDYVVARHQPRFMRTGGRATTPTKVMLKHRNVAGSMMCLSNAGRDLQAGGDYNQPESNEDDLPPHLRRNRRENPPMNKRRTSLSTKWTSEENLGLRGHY

Estrogen receptor beta = Estrogen receptor beta (Homo sapiens, UniProt Q92731); assay: ERβ–SRC-3 coactivator interaction inhibitors, confirmation, orthogonal assay, biochemical, ELISA, streptavidin-HRP readout (AID 1060)
Chain of Estrogen receptor beta (Q92731 whole entry): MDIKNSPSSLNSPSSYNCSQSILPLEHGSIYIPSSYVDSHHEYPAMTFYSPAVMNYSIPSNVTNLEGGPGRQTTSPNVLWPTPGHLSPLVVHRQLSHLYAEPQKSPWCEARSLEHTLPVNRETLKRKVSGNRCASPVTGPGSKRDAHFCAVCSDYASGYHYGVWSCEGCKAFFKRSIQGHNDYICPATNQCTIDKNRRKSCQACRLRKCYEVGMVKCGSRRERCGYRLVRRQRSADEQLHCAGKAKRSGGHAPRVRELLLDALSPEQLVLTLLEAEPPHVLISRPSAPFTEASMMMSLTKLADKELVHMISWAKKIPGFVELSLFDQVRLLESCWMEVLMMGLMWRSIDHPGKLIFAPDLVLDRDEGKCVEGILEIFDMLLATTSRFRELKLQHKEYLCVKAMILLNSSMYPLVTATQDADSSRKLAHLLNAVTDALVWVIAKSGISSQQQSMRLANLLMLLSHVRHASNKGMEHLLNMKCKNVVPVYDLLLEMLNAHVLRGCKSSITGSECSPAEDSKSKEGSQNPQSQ

[4] = molecular target: Bifunctional protein GlmU (Mycobacterium tuberculosis, UniProt P9WMN3); assay: Inhibitors of Mycobacterial Glucosamine-1-phosphate acetyl transferase (GlmU). Secondary screen.; parameters: species or system Mycobacterium tuberculosis H37Rv
Chain of Bifunctional protein GlmU (P9WMN3 whole entry): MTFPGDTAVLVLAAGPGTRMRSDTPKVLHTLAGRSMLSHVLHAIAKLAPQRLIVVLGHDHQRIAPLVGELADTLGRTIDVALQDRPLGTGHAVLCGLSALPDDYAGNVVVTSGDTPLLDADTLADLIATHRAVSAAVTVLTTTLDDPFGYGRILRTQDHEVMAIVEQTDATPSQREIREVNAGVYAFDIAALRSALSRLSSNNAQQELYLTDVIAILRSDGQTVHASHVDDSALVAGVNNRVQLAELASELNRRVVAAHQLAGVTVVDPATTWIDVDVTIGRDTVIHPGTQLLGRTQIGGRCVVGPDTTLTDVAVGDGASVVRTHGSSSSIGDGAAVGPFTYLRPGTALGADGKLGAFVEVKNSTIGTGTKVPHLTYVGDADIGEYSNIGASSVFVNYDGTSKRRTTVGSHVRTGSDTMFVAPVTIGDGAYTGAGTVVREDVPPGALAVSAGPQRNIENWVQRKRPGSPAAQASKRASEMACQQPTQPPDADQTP

[5] = molecular target: T5, Dual specificity protein phosphatase 6 (Rattus norvegicus, UniProt Q64346); assay: MKP-3 phosphatase inhibitors, primary screen, biochemical, rat enzyme, in vitro (AID 425)
T5 sequence (Q64346 whole entry): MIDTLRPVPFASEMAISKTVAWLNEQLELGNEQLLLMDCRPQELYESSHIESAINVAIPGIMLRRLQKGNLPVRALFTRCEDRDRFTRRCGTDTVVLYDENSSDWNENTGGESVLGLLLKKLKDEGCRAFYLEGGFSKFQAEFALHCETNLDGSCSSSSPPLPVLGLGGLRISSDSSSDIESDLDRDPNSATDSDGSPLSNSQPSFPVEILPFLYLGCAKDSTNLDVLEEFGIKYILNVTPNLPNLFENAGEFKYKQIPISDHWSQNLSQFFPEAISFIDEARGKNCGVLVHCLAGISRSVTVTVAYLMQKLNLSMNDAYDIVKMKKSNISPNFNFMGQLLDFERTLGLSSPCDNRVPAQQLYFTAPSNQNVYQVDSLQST

[6] = molecular target: T6, Carboxy-terminal domain RNA polymerase II polypeptide A small phosphatase 1 (Homo sapiens, UniProt Q9GZU7); assay: inhibitors of CTDSP1, concentration-response testing, biochemical assay, absorbance-based, actives from ultra-high-throughput screening (AID 540297); type: functional
T6 sequence (Q9GZU7 whole entry): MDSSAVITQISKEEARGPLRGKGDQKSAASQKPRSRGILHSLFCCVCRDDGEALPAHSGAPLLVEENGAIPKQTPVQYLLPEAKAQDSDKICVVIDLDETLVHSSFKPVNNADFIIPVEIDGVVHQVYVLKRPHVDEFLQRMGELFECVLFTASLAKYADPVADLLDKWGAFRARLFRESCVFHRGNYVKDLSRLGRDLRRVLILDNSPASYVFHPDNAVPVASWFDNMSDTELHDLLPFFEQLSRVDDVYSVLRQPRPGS

[7] = molecular target: T7, Histone-lysine N-methyltransferase NSD2 (Homo sapiens, UniProt O96028); type: biochemical
T7 sequence (O96028 whole entry): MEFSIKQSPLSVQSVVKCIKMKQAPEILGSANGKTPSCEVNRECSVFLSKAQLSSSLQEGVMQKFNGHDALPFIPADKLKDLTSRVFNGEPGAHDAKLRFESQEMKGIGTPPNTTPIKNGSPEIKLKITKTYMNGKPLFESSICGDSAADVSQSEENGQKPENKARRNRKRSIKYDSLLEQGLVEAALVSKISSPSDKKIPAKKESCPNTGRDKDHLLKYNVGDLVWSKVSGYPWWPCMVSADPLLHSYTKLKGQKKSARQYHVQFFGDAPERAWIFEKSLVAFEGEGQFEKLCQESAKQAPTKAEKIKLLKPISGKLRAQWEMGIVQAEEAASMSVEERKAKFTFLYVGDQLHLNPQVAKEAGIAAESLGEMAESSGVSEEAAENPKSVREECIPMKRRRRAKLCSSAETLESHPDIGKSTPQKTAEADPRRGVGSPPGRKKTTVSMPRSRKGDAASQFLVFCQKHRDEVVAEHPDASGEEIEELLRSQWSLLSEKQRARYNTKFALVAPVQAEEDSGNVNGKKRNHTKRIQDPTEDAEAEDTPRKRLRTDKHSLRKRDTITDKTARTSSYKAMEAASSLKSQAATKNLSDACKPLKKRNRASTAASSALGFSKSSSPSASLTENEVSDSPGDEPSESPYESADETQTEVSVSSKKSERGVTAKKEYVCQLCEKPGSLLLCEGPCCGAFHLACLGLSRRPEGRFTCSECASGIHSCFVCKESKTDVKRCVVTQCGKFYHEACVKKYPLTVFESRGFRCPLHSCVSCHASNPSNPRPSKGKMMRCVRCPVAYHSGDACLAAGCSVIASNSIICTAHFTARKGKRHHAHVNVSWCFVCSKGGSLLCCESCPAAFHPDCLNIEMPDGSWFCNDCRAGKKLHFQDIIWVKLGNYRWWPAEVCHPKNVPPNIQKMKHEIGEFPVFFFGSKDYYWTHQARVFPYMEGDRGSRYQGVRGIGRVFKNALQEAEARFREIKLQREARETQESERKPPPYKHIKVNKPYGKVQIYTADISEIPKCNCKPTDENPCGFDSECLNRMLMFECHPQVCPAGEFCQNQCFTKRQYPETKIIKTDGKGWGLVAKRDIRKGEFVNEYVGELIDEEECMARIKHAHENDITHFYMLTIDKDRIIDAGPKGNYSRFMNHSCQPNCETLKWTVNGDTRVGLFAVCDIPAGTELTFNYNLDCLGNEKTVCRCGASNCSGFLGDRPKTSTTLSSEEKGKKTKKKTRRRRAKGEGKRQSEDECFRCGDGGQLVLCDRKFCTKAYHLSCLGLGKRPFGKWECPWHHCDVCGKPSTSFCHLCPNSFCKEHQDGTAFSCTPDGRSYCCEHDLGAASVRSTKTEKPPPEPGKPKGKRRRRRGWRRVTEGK

[8] = molecular target: T8, Potassium channel subfamily K member 9 (Homo sapiens, UniProt Q9NPC2); assay: KCNK9 (TASK3) current inhibition by patch clamp, SAR follow-up, selectivity assay for TASK1 (KCNK3) inhibitor project, cell-based, automated electrophysiology (AID 652210); type: functional
T8 sequence (Q9NPC2 whole entry): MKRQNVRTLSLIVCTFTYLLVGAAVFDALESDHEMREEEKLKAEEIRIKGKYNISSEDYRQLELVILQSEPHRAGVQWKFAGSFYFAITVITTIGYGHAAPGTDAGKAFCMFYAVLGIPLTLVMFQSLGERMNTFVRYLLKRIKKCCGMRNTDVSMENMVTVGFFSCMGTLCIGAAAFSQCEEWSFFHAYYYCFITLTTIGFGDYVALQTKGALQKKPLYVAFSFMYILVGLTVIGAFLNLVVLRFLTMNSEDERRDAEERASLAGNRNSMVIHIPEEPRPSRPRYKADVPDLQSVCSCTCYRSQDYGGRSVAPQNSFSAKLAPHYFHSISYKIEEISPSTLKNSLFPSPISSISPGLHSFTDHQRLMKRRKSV

[9] = molecular target: T8, Potassium channel subfamily K member 9; assay: TASK3 (KCNK9) channel inhibitors, thallium flux, SAR follow-up, selectivity assay for TASK1 inhibitor project, cell-based, FluxOR thallium flux, concentration-response (AID 652211); type: functional;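 also: potency is for inhibitors of the channel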
[10] = molecular target: Potassium channel subfamily K member 3 (Rattus norvegicus, UniProt O54912); assay: SAR analysis for the identification of selective inhibitors of the two-pore domain potassium channel TASK1(KCNK3):Automated Electrophysiology.; type: functional
Chain of Potassium channel subfamily K member 3 (Rattus norvegicus, UniProt O54912) (O54912 whole entry, the tested form may be a part): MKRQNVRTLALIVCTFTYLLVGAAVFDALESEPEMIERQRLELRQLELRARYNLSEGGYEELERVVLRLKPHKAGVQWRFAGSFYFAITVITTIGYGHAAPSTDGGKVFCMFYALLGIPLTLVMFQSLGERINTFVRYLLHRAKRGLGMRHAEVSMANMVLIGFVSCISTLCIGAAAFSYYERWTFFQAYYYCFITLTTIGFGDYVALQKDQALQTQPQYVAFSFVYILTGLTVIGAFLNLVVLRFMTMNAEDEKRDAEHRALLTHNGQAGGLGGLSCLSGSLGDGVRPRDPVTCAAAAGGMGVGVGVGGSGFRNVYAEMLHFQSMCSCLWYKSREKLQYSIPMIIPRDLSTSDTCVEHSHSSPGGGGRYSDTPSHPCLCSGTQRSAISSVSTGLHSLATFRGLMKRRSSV

[11] = molecular target: Potassium channel subfamily K member 3 (Homo sapiens, UniProt O14649); assay: TASK1 (KCNK3) potassium channel inhibitors, SAR follow-up, CHO cells, FluxOR thallium flux (AID 652212); type: functional
Chain of Potassium channel subfamily K member 3 (Homo sapiens, UniProt O14649) (O14649 whole entry): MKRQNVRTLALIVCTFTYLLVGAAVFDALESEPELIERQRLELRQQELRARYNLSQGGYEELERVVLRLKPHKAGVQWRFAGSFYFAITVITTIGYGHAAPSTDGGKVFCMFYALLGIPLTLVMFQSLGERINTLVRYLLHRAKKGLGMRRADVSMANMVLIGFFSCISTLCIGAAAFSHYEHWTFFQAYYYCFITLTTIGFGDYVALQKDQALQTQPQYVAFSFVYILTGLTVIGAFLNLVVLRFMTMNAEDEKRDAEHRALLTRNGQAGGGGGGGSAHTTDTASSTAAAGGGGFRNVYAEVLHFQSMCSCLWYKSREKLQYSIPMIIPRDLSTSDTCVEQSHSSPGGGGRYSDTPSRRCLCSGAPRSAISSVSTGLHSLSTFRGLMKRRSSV

[12] = Dose-response inhibition of insulin secretion in a rat insulinoma line at 5 mM glucose (AID 1117331); type: functional, cell-based; details: INS-1E
[13] = Concentration-dependent survival of SW480 colon cancer line, luminescence detection with CellTiter-Glo, half-maximal inhibitory concentration (AID 1117338); type: functional
[14] = RKO cell viability reduction, dose response, CellTiter-Glo luminescence (AID 1117322); type: functional
[15] = cytotoxicity toward HCT116 cells – cell-based, CellTiter-Glo luminescence, IC50, dose response (AID 1117332); type: functional; details: HCT-116
[16] = SNU-C1 cell viability reduction, dose response, CellTiter-Glo luminescence (AID 1117323); type: functional, cell-based
[17] = cytotoxicity toward Colo320 cells – cell-based, CellTiter-Glo luminescence, IC50, dose response (AID 1117334); type: functional; details: COLO 320
[18] = cytotoxicity toward HT-29 cells – cell-based, CellTiter-Glo luminescence, IC50, dose response (AID 1117330); type: functional
[19] = CellTiter-Glo luminescent dose response of DLD-1 viability loss (AID 1117352); type: functional
[20] = HCT116 cell viability decrease, GSK3B pretreatment – CellTiter-Glo, IC50, dose response (AID 1117339); type: functional; details: HCT-116
[21] = HeLa 2N DNA content increase, dose response, cell-based, IC50 (AID 1117349); type: functional
[22] = HeLa 4N DNA content increase, dose response, cell-based, IC50 (AID 1117351); type: functional

Chain of Kallikrein-7 (P49862 whole entry, the tested form may be a part): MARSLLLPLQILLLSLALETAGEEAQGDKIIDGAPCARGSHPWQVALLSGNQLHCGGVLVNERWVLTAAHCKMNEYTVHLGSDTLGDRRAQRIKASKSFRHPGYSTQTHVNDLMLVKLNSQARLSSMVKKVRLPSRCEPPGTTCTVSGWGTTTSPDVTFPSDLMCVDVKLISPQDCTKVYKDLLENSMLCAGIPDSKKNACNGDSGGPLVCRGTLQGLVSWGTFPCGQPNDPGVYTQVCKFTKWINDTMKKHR

## COc1ccc(C2Nc3ccccc3C(=O)N2NC(C)=O)c(OC)c1 (stereo not drawn)
Kallikrein-7
  EC50: 9.55 µM (active)

## Cc1ccc(C2=Nc3ccccc3N=C(C(Cl)Cl)C2)cc1
[1]
  EC50: > 67.5 µM (inactive)
cells
  EC50: > 67.5 µM (inactive)

## O=C(O)c1cccc(-n2cccc2/C=N/O)c1
[2]
  EC50: > 300 µM (not active)
Bcl-2-like protein 10
  IC50: 18.3 µM (active)
[3]
  EC50: > 300 µM (not active)
Estrogen receptor beta
  IC50: < 0.023 µM (not active)
[4]
  IC50: 91.6 µM (active)
[5]
  IC50: > 10 µM (not active)
[6]
  IC50: 3.09 µM (active)
[7]
  AC50: 12.2 µM (active)

## CCOc1ccccc1C(=O)Nc1cccc(NC(=O)C2CCCC2)c1
[8]
  IC50: 0.49 µM (active)
[9]
  IC50: 1.11 µM (active)
[10]
  IC50: 0.03 µM (active)
[11]
  IC50: 0.108 µM (active)

## CCCCN(CCCC)C(C(N)=O)c1ccc(OC)cc1 (stereo not drawn) [AMBUCETAMIDE]
[12]
  IC50: > 33.3 µM (inactive)

## CCOC(=O)c1ccccc1C(=O)OCC [DIETHYL PHTHALATE]
[13]
  IC50: > 20 µM (inactive)
[14]
  IC50: > 20 µM (inactive)
[15]
  IC50: > 20 µM (inactive)
[16]
  IC50: > 20 µM (inactive)
[17]
  IC50: > 20 µM (inactive)
[18]
  IC50: > 20 µM (inactive)
[19]
  IC50: > 20 µM (inactive)
[20]
  IC50: > 20 µM (inactive)

## NCCCC[C@H](N[C@@H](CCc1ccccc1)C(=O)O)C(=O)N1CCC[C@H]1C(=O)O [LISINOPRIL]
[21]
  IC50: > 10 µM (inactive)
[13]
  IC50: 4.03 µM (active)
[14]
  IC50: 8.88 µM (inactive)
[15]
  IC50: 3.39 µM (active)
[16]
  IC50: 2.53 µM (active)
[17]
  IC50: > 20 µM (inactive)
[22]
  IC50: > 10 µM (inactive)
[18]
  IC50: > 6.67 µM (inactive)
[19]
  IC50: 2.24 µM (active)
